How the values were obtained:
Assay in all cases: viability inhibition at highest dose (% inhibition); higher = more growth inhibition
[1] = test system: T-47D; conditions: 72 h
Protocol: (§1)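 Percent inhibition of viability (CellTiter-Glo, 72 h) at the highest tested concentration (D5), normalised to DMSO (0%) and 100 µM benzethonium chloride (100%). Resistant lines and the 'in 1µM tamoxifen' arms were tested in 1 µM 4-OH-tamoxifen.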

[2] = test system: MCF-7; conditions: 72 h
Protocol: as §1

[3] = test system: T-47D Tam1; conditions: 4-OH-tamoxifen in medium 1 µM; 72 h
Protocol: as §1

[4] = test system: BT-474 Tam2; conditions: 4-OH-tamoxifen in medium 1 µM; 72 h
Protocol: as §1

[5] = test system: BT-474; conditions: 72 h
Protocol: as §1

[6] = test system: ZR-75-1 Tam2; conditions: 4-OH-tamoxifen in medium 1 µM; 72 h
Protocol: as §1

[7] = test system: T-47D Tam2; conditions: 4-OH-tamoxifen in medium 1 µM; 72 h
Protocol: as §1

[8] = test system: ZR-75-1 Tam1; conditions: 4-OH-tamoxifen in medium 1 µM; 72 h
Protocol: as §1

[9] = test system: ZR-75-1; conditions: 72 h
Protocol: as §1

[10] = test system: BT-474 Tam1; conditions: 4-OH-tamoxifen in medium 1 µM; 72 h
Protocol: as §1

[11] = test system: MCF-7 Tam1; conditions: 4-OH-tamoxifen in medium 1 µM; 72 h
Protocol: as §1

| SMILES | viability inhibition at highest dose ([1]; 4-OH-tamoxifen in medium 0 µM) | viability inhibition at highest dose ([1]; 4-OH-tamoxifen in medium 1 µM) | viability inhibition at highest dose ([2]; 4-OH-tamoxifen in medium 0 µM) | viability inhibition at highest dose ([2]; 4-OH-tamoxifen in medium 1 µM) | viability inhibition at highest dose [3] | viability inhibition at highest dose [4] | viability inhibition at highest dose ([5]; 4-OH-tamoxifen in medium 0 µM) | viability inhibition at highest dose ([5]; 4-OH-tamoxifen in medium 1 µM) | viability inhibition at highest dose [6] | viability inhibition at highest dose [7] | viability inhibition at highest dose [8] | viability inhibition at highest dose ([9]; 4-OH-tamoxifen in medium 0 µM) | viability inhibition at highest dose ([9]; 4-OH-tamoxifen in medium 1 µM) | viability inhibition at highest dose [10] | viability inhibition at highest dose [11] |
| --- | --- | --- | --- | --- | --- | --- | --- | --- | --- | --- | --- | --- | --- | --- | --- |
| CC(C)(C)c1cnc(CSc2cnc(NC(=O)C3CCNCC3)s2)o1 [SNS-032] (drug 10000 nM) | 22.4 | 4.07 | 47.4 | 51.2 | 49.1 | 87.2 | 10.3 | 33.1 | 52.6 | 32 | 45.3 | 42.4 | 43.3 | 88.7 | 31.3 |
| Cc1ccc(C(=O)Nc2ccc(CN3CCN(C)CC3)c(C(F)(F)F)c2)cc1C#Cc1cnc2cccnn12 (drug 1000 nM) | 20.5 | 33.7 | 11.5 | 25.9 | 70.1 | 6 | -2.54 | 36.2 | 12 | 37.9 | 12.3 | 3.08 | 12 | 35.9 | 12.7 |
| C=CCNC1=C2C[C@@H](C)C[C@H](OC)[C@H](O)[C@@H](C)/C=C(\C)[C@H](OC(N)=O)[C@@H](OC)/C=C\C=C(/C)C(=O)NC(=CC1=O)C2=O [Tanespimycin  (17-AAG)] (drug 10000 nM) | 55.6 | 43.3 | 70 | 51.1 | 43.6 | 74.3 | 52.1 | 81.8 | 48.8 | 43.5 | 45.8 | 31 | 45.4 | 74.9 | 35.7 |
| O=c1[nH]c(=O)n([C@H]2C[C@H](O)[C@@H](CO)O2)cc1F [Floxuridine] (drug 10000 nM) | 22.3 | 7.89 | 21 | 1.8 | 59 | 3.04 | 30.5 | 27.9 | 18.5 | 21.3 | 8.75 | 22.7 | 12.6 | 12.3 | 5.39 |
| CNC(=O)c1ccc(N2C(=S)N(c3ccc(C#N)c(C(F)(F)F)c3)C(=O)C23CCC3)cc1F [RD162] (drug 10000 nM) | -17.8 | 17.8 | -8.95 | 8.98 | 3.92 | 13.7 | -4.36 | -3.06 | 1.22 | 3.39 | 2.17 | -4.4 | 3.37 | 13.8 | 3.13 |
| Cc1c(N)nc([C@H](CC(N)=O)NC[C@H](N)C(N)=O)nc1C(=O)N[C@H](C(=O)N[C@H](C)[C@@H](O)[C@H](C)C(=O)N[C@H](C(=O)NCCc1nc(-c2nc(C(=O)NCCC[S+](C)C)cs2)cs1)[C@@H](C)O)[C@@H](OC1OC(CO)C(O)C(O)C1OC1OC(CO)C(O)C(OC(N)=O)C1O)c1cnc[nH]1 (stereo not given in full) [Bleomycin] (drug 10000 nM) | 19.4 | -2.9 | 12.6 | 11.9 | 23.9 | -5.24 | -15.7 | -12 | -0.492 | -17.7 | 12.1 | 22.4 | 9.45 | -4.38 | -1.39 |
| N[C@@H](CSC(c1ccccc1)(c1ccccc1)c1ccccc1)C(=O)O [S-trityl-L-cysteine] (drug 40000 nM) | 2.31 | 4.34 | 0.988 | 18.1 | 4.09 | -5.53 | -1.05 | 23.9 | 3.17 | 4.25 | 4.16 | 9.84 | 13 | 23.3 | -5.14 |
| O=C(NC[C@H](O)CO)c1ccncc1Nc1ccc(I)cc1F (drug 10000 nM) | 10.4 | -8.51 | 35.6 | 19.8 | 35.6 | 6.28 | 17.2 | 48 | 7.84 | 34 | 2.34 | 7.13 | 10 | 13.6 | 12.7 |
| CC[C@@]1(O)C(=O)OCc2c1cc1n(c2=O)Cc2cc3c(CN(C)C)c(O)ccc3nc2-1 [Topotecan] (drug 1000 nM) | 52.2 | 5.37 | 11 | 23.7 | 46 | 0.0411 | -20.8 | -23.9 | 48.3 | 27.9 | 40.6 | 49.4 | 38.6 | 4.54 | -1.83 |
| CN1CC[C@H](c2c(O)cc(O)c3c(=O)cc(-c4ccccc4Cl)oc23)[C@H](O)C1 [Alvocidib (Flavopiridol)] (drug 10000 nM) | 29.3 | -0.409 | 62.9 | 65 | 57.8 | 89.5 | 9.07 | 46.1 | 55.9 | 38.7 | 49.9 | 50.1 | 46.6 | 96.8 | 30.1 |
| CC(=O)c1c(C)c2cnc(Nc3ccc(N4CCNCC4)cn3)nc2n(C2CCCC2)c1=O (drug 10000 nM) | 28.1 | 0.74 | 33.1 | 27.9 | 29.5 | 9.88 | 1.33 | 4.19 | 24.2 | 21.5 | 18.7 | 2.14 | 20.6 | 6.18 | 21.2 |
| N#CC[C@H](C1CCCC1)n1cc(-c2ncnc3[nH]ccc23)cn1 (drug 10000 nM) | -12.9 | -14.9 | 1.33 | -20.6 | -14.3 | -31.9 | -21.3 | -53.3 | -7.38 | -5.81 | -14.2 | -0.421 | -1.41 | -28.1 | -11.4 |
| Nc1ccccc1NC(=O)c1ccc(CNc2nccc(-c3cccnc3)n2)cc1 [Mocetotinostat (MGCD0103)] (drug 10000 nM) | 81.2 | 73.8 | 80.1 | 62.7 | 52.9 | 83.4 | 65.7 | 94.3 | 31 | 41.7 | 27.6 | 32.8 | 23.3 | 95.4 | 15.4 |
| C#Cc1cccc(Nc2ncnc3cc(OC)c(OCCCCCCC(=O)NO)cc23)c1 [CUDC-101] (drug 10000 nM) | 95.1 | 94.8 | 89.6 | 94.5 | 88.4 | 94.4 | 93.9 | 97 | 54.5 | 76.8 | 42.4 | 42.7 | 51.5 | 95.6 | 48.3 |
| COC(=O)C[C@](O)(CCCC(C)(C)O)C(=O)O[C@@H]1C(OC)=C[C@]23CCCN2CCc2cc4c(cc2[C@H]13)OCO4 [Omacetaxine (Homoharringtonine)] (drug 10000 nM) | 81.1 | 55.6 | 82.1 | 75.5 | 74.5 | 73.4 | 19.5 | 75 | 76.1 | 71.4 | 53.7 | 54.1 | 52.2 | 82.1 | 62.7 |
| N.N.[Cl][Pt][Cl] [Cisplatin] (drug 10000 nM) | -16.1 | -8.72 | -20.9 | 0.697 | -3.02 | 2.59 | -3.72 | -4.53 | -1.7 | 8.3 | 3.43 | -8.66 | -5.04 | -9.25 | 3.44 |
| CCC/C=C/C=C/C(=O)O[C@H]1/C(=C/C(=O)OC)C[C@H]2C[C@H]([C@@H](C)O)OC(=O)C[C@H](O)C[C@@H]3C[C@H](OC(C)=O)C(C)(C)[C@](O)(C[C@@H]4C/C(=C/C(=O)OC)C[C@H](/C=C/C(C)(C)[C@]1(O)O2)O4)O3 [Bryostatin 1] (drug 100 nM) | -5.82 | -5.94 | 3.91 | 14.2 | 10.5 | -0.0992 | 0.0548 | -6.89 | 3.49 | -13.3 | 10.2 | 12.6 | -3.78 | -4.14 | 9.71 |
| CO[C@H]1C[C@@H]2CC[C@@H](C)[C@@](O)(O2)C(=O)C(=O)N2CCCC[C@H]2C(=O)O[C@H]([C@H](C)C[C@@H]2CC[C@@H](OCCO)[C@H](OC)C2)CC(=O)[C@H](C)/C=C(\C)[C@@H](O)[C@@H](OC)C(=O)[C@H](C)C[C@H](C)/C=C/C=C/C=C/1C [Everolimus] (drug 100 nM) | 29.1 | 24 | 47.5 | 34.3 | 28.2 | 15.8 | 15.8 | 11.4 | 38.4 | 25.9 | 34.2 | 35.9 | 32.7 | 22.1 | 15.6 |
| COc1cc2c(cc1O)CC[C@@H]1[C@@H]2CC[C@]2(C)[C@@H](O)CC[C@@H]12 [2-methoxyestradiol  (Panzem)] (drug 10000 nM) | 32.6 | -2.41 | 24.8 | 17.7 | 24.5 | 24.3 | 48.9 | 63.3 | 3.21 | 29.8 | 6.41 | 36.8 | 2.3 | 27.1 | -11.2 |
| COc1ccc(C2=N[C@@H](c3ccc(Cl)cc3)[C@@H](c3ccc(Cl)cc3)N2C(=O)N2CCNC(=O)C2)c(OC(C)C)c1 [Nutlin-3] (drug 10000 nM) | 1.78 | 1.4 | 28.5 | 45.2 | 15.8 | 29.7 | -7.59 | 11.2 | 42.8 | 20.4 | 31.8 | 36 | 29.7 | 33.4 | 16.7 |
| CCCCC(=O)OCC(=O)[C@]1(O)Cc2c(O)c3c(c(O)c2[C@@H](O[C@H]2C[C@H](NC(=O)C(F)(F)F)[C@H](O)[C@H](C)O2)C1)C(=O)c1c(OC)cccc1C3=O [Valrubicin] (drug 10000 nM) | 58.2 | 68.2 | 55 | 77 | 67.9 | 59.5 | 42.6 | 77.1 | 85.4 | 63.2 | 70.3 | 59.8 | 58.9 | 75.8 | 30.4 |
| COc1cc([C@@H]2c3cc4c(cc3[C@@H](O[C@@H]3O[C@@H]5CO[C@@H](C)O[C@H]5[C@H](O)[C@H]3O)[C@H]3COC(=O)[C@H]23)OCO4)cc(OC)c1O [Etoposide] (drug 10000 nM) | 46.7 | 15.7 | 8.22 | 12.7 | 42.1 | -7.49 | -4.44 | 27.7 | 15.5 | 7.25 | 23 | 32.5 | 19.4 | 14 | -2.1 |
| CO[C@@]12[C@H](COC(N)=O)C3=C(C(=O)C(C)=C(N)C3=O)N1C[C@@H]1N[C@@H]12 [Mitomycin C] (drug 10000 nM) | 31.4 | -4.69 | 16.2 | 11.4 | 33.5 | 0.827 | -12.3 | -7 | 23.4 | 10.8 | 28.3 | 25.5 | 23.7 | 0.772 | -6.06 |
| COc1c(C)cnc(Cn2cnc3c(Cl)nc(N)nc32)c1C [BIIB021] (drug 10000 nM) | 65.4 | 51.5 | 56.8 | 45.6 | 46 | 70.9 | 48.2 | 70.8 | 39.3 | 50 | 36.3 | 32.2 | 34.3 | 72.2 | 26.1 |
| COc1cc2/c(=N/c3ccc(Br)cc3F)nc[nH]c2cc1OCC1CCN(C)CC1 [Vandetanib  (ZD6474, Zactima)] (drug 1000 nM) | -1.36 | -3.82 | 15.2 | 11.9 | 11.5 | 15 | 2.03 | 5.94 | 0.544 | 20.8 | 4.94 | -14.7 | -3 | 22 | -0.506 |
